In PMC8639922, “KSHV transactivator-derived small peptide traps coactivators to attenuate MYC and inhibits leukemia and lymphoma cell growth” (Communications Biology, 2021):
Square brackets hold non-standard residues; d marks the D form. Peptide text beside a SMILES is read from it. Orn = NCCC[C@H](N)C(=O)O; βAla = NCCC(=O)O

Tested on: PEL-derived human cytokines
Experiment: Olink INFLAMMATION panel, cytokines in ascites fluid of PEL xenograft
Type: in vivo, mouse
Design: key to IL8 / CXCL10 / FGF-19 / IL-12B / TRAIL / VEGFA / IL-17A / CST5 / IL-18R1 / HGF / ARTN / bNGF: NPX, log2-normalized protein expression; key to 4E-BP1 / TWEAK / LAP TGF-beta-1 / Beta-NGF / LAPTGFb-1 / TWAEK / 4EBP-1 / IL-8: log2-scale normalized protein expression (NPX) values
Procedure: Fig. 6 VGN50 inhibits BCBL-1 cell growth in xenograft mice. a PEL-xenograft. BCBL-1 cells (2 × 10^7 cells) were injected i.p. Peptide (10 mg/kg) was administrated i.p. daily and tumor growth was monitored by measurement of body weight (n = 6–9 mice per group). b Ascites volume and PEL cell counts. In a separate experiment, ascites volume and PEL cell counts in ascites fluid were measured at day 10. (n = 3–4 mice per group) c Induction of atrophy. BCBL-1 cells isolated from ascites fluid were measured for FSC-A and SSC-A by flow cytometry. […] (n = 3) d Expression of inflammatory cytokines. Principal component analysis based on expression levels of inflammatory cytokine contents in ascites fluid. e Cytokine heat map. Heatmap generated based on abundance of the indicated cytokines in ascites fluids. Ascites fluid was taken at day 10. a–c Data were analyzed using ordinary one-way Anova followed by Tukey’s multiple comparisons test.
Since PELs are frequently involved in effusions in multiple body cavities in human patients and the amounts of inflammatory cytokines in the effusion are strong prognostic factors, we also extracted ascites fluid and profiled it to see if the PEL cell-derived human cytokine profile was also altered by continued VGN50 treatment.
PEL-derived cytokine profiles in ascites were measured with Olink analysis service with the Olink INFLAMMATION panel using proximity extension technology, a high-throughput multiplex proteomic immunoassay. In short, the panel includes 92 immune-related proteins, primarily cytokines and chemokines. The assay utilizes epitope-specific binding and hybridization of a set of paired oligonucleotide antibody probes, which is subsequently amplified using quantitative PCR, resulting in log base 2-normalized protein expression (NPX) values. The data was processed and analyzed with Olink Insight Stat Analysis software.

CC(C)C[C@H](NC(=O)CCNC(=O)[C@H](CCCNC(=N)N)NC(=O)[C@H](CCCNC(=N)N)NC(=O)[C@H](CCCNC(=N)N)NC(=O)[C@H](CCCN)NC(=O)[C@H](CCCNC(=N)N)NC(=O)[C@H](CCCNC(=N)N)NC(=O)[C@H](CCCCN)NC(=O)[C@H](CCCCN)NC(=O)[C@H](N)CCCNC(=N)N)C(=O)N[C@@H](CO)C(=O)N[C@@H](CO)C(=O)N[C@@H](C)C(=O)N[C@@H](C)C(=O)N[C@@H](C)C(=O)NCC(=O)N[C@@H](CC(C)C)C(=O)N[C@@H](Cc1ccc(O)cc1)C(=O)N[C@@H](CCC(N)=O)C(=O)N[C@@H](CC(C)C)C(=O)N[C@@H](CC(=O)O)C(=O)N[C@H](C(=O)O)[C@@H](C)O [Mt-P] (H-[dR]KKRR[Orn]RRR[βAla]LSSAAAGLYQLDT-OH; N-terminus and C-terminus assumed)
4E-BP1 (sheet Fig.6d-e, animal 1): 11.1631
ARTN (sheet Fig.6d-e, animal 1): 5.386
Beta-NGF (sheet Fig.6d-e, animal 1): -0.391
CST5 (sheet Fig.6d-e, animal 1): 1.859
CXCL10 (sheet Fig.6d-e, animal 1): 13.3461
FGF-19 (sheet Fig.6d-e, animal 1): 2.165
HGF (sheet Fig.6d-e, animal 1): 6.396
IL8 (sheet Fig.6d-e, animal 1): 0.86
IL-12B (sheet Fig.6d-e, animal 1): 2.007
IL-17A (sheet Fig.6d-e, animal 1): 3.739
IL-18R1 (sheet Fig.6d-e, animal 1): 4.131
LAP TGF-beta-1 (sheet Fig.6d-e, animal 1): 6.199
TRAIL (sheet Fig.6d-e, animal 1): 1.379
TWEAK (sheet Fig.6d-e, animal 1): 8.018
VEGFA (sheet Fig.6d-e, animal 1): 14.7314
4E-BP1 (sheet Fig.6d-e, animal 2): 11.0835
ARTN (sheet Fig.6d-e, animal 2): 5.243
Beta-NGF (sheet Fig.6d-e, animal 2): -0.4548
CST5 (sheet Fig.6d-e, animal 2): 2.027
CXCL10 (sheet Fig.6d-e, animal 2): 13.3201
FGF-19 (sheet Fig.6d-e, animal 2): 2.0905
HGF (sheet Fig.6d-e, animal 2): 6.305
IL8 (sheet Fig.6d-e, animal 2): 0.7089
IL-12B (sheet Fig.6d-e, animal 2): 2.204
IL-17A (sheet Fig.6d-e, animal 2): 3.881
IL-18R1 (sheet Fig.6d-e, animal 2): 4.133
LAP TGF-beta-1 (sheet Fig.6d-e, animal 2): 6.253
TRAIL (sheet Fig.6d-e, animal 2): 1.569
TWEAK (sheet Fig.6d-e, animal 2): 8.091
VEGFA (sheet Fig.6d-e, animal 2): 14.6793
4E-BP1 (sheet Fig.6d-e, animal 3): 10.8123
ARTN (sheet Fig.6d-e, animal 3): 5.723
Beta-NGF (sheet Fig.6d-e, animal 3): -0.3222
CST5 (sheet Fig.6d-e, animal 3): 2.133
CXCL10 (sheet Fig.6d-e, animal 3): 13.0806
FGF-19 (sheet Fig.6d-e, animal 3): 2.37
HGF (sheet Fig.6d-e, animal 3): 6.6
IL8 (sheet Fig.6d-e, animal 3): 0.7009
IL-12B (sheet Fig.6d-e, animal 3): 2.082
IL-17A (sheet Fig.6d-e, animal 3): 4.127
IL-18R1 (sheet Fig.6d-e, animal 3): 4.157
LAP TGF-beta-1 (sheet Fig.6d-e, animal 3): 6.359
TRAIL (sheet Fig.6d-e, animal 3): 1.603
TWEAK (sheet Fig.6d-e, animal 3): 8.37
VEGFA (sheet Fig.6d-e, animal 3): 14.8087
4EBP-1 (sheet SFig5, animal 1): 11.7332
ARTN (sheet SFig5, animal 1): 5.386
CST5 (sheet SFig5, animal 1): 1.859
FGF-19 (sheet SFig5, animal 1): 2.165
HGF (sheet SFig5, animal 1): 4.42
IL-8 (sheet SFig5, animal 1): 0.86
IL-12B (sheet SFig5, animal 1): 2.007
IL-17A (sheet SFig5, animal 1): 1.782
IL-18R1 (sheet SFig5, animal 1): 4.131
LAPTGFb-1 (sheet SFig5, animal 1): 4.365
TRAIL (sheet SFig5, animal 1): 1.379
TWAEK (sheet SFig5, animal 1): 5.713
VEGFA (sheet SFig5, animal 1): 13.2543
bNGF (sheet SFig5, animal 1): -0.391
4EBP-1 (sheet SFig5, animal 2): 11.7927
ARTN (sheet SFig5, animal 2): 5.243
CST5 (sheet SFig5, animal 2): 2.027
CXCL10 (sheet SFig5, animal 2): 11.2953
FGF-19 (sheet SFig5, animal 2): 2.0905
HGF (sheet SFig5, animal 2): 4.269
IL-8 (sheet SFig5, animal 2): 0.7089
IL-12B (sheet SFig5, animal 2): 2.204
IL-17A (sheet SFig5, animal 2): 1.942
IL-18R1 (sheet SFig5, animal 2): 4.133
LAPTGFb-1 (sheet SFig5, animal 2): 4.29
TRAIL (sheet SFig5, animal 2): 1.569
TWAEK (sheet SFig5, animal 2): 5.701
VEGFA (sheet SFig5, animal 2): 13.2545
bNGF (sheet SFig5, animal 2): -0.4548
4EBP-1 (sheet SFig5, animal 3): 11.484
ARTN (sheet SFig5, animal 3): 5.723
CST5 (sheet SFig5, animal 3): 2.133
CXCL10 (sheet SFig5, animal 3): 11.1526
FGF-19 (sheet SFig5, animal 3): 2.37
HGF (sheet SFig5, animal 3): 4.697
IL-8 (sheet SFig5, animal 3): 0.7009
IL-12B (sheet SFig5, animal 3): 2.082
IL-17A (sheet SFig5, animal 3): 2.371
IL-18R1 (sheet SFig5, animal 3): 4.157
LAPTGFb-1 (sheet SFig5, animal 3): 4.688
TRAIL (sheet SFig5, animal 3): 1.603
TWAEK (sheet SFig5, animal 3): 6.152
VEGFA (sheet SFig5, animal 3): 13.6674
bNGF (sheet SFig5, animal 3): -0.3222
